How the values were obtained:
Type in all cases: in vivo
Cyperaceae = assay: Post-emergence herbicidal activity test in a paddy field; design: key: level scale; higher level = more weed left vs blank control; conditions: 150 g a.i./ha (penoxsulam control 250 g(a.i.)/h)
Protocol: (§1) The post-emergence herbicidal activity test was performed in a paddy field with some of the N-benzylbenzamide-based compounds of general formula I or II with reference to the method of GB/T 17980.40-2000. […] Spray treatments were performed in the stage where 4 leaves to 5 leaves were grown for the rice seedlings which was about 1 month after the sowing. Representative compounds in the examples were used to prepare emulsifiable concentrates (10%), and spray treatments were performed with the concentrates in water at a dosage of 150 g(a.i.)/ha, and repeated 4 times for each treatment, and the area was 50 m^2. 25 g/L of penoxsulam suspension was used as a control agent and applied at a dosage of 250 g(a.i.)/h. The results were investigated by a value estimating survey method 15 days and 30 days after the treatments. The relative weed population quantities were estimated by comparing each agent treated area with an adjacent blank control area, and the results of which were investigated with the following grading standard method using the overall coverage of the weed population as an indicator.
(§2) Level 2: equivalent to 0 to 2.5% of the weed in the blank control area;
(§3) Level 3: equivalent to 2.6 to 5% of the weed in the blank control area;
(§4) Level 4: equivalent to 5.1 to 10% of the weed in the blank control area;
(§5) Level 5: equivalent to 10.1 to 15% of the weed in the blank control area;
(§6) Level 6: equivalent to 15.1 to 25% of the weed in the blank control area;
(§7) Level 7: equivalent to 25.1 to 35% of the weed in the blank control area;
(§8) Level 8: equivalent to 35.1 to 67.5% of the weed in the blank control area; and
(§9) Level 9: equivalent to 67.6 to 100% of the weed in the blank control area.

Broadleaf weed = assay: as above; design: key: level scale; higher level = more weed left vs blank control; conditions: 150 g a.i./ha (penoxsulam control 250 g(a.i.)/h)
Protocol: as §1, §2, §3, §4, §5, §6, §7, §8, §9

Gramineae = assay: as above; design: key: level scale; higher level = more weed left vs blank control; conditions: 150 g a.i./ha (penoxsulam control 250 g(a.i.)/h)
Protocol: as §1, §2, §3, §4, §5, §6, §7, §8, §9

Digitaria sanguinalis [1] = assay: Herbicidal activity test for indoor pre-emergence soil treatment; design: key: 1-9 levels; higher = more weed remaining vs blank control; conditions: 150 g a.i./ha, visual inspection 21 days after treatment
Protocol: (§10) The herbicidal activity test for indoor pre-emergence soil treatment was performed with some of the N-benzylbenzamide-based compounds of general formula I or II with reference to the method of NY/T 1155.3-2006. Neutral sandy loam soil having an organic content of ≤2% was added to fill ⅘ of the pot, and the soil was completely moistened by infiltrating irrigation from the bottom of the pot. The seeds of the test weed were evenly spread on the soil surface, and then covered by 0.5 cm to 2.0 cm of soil depending on the seed size. Representative compounds in the examples were used to prepare emulsifiable concentrates (10%), and spray treatments to the soil were performed 24 hours after the sowing with the test agents diluted with water, at a spraying dosage of 150 g(a.i.)/ha. Then, the results were investigated by visual inspection 21 days after the treatments. The herbicidal activity of the agent was evaluated on a scale of 1-9 levels according to the symptoms and severity of damage to the test weeds.
as §2, §3, §4, §5, §6, §7, §8, §9

Amaranthus retroflexus [2] = assay: as above; design: key: 1-9 levels; higher = more weed remaining vs blank control; conditions: 150 g a.i./ha, visual inspection 21 days after treatment
Protocol: as §10, §2, §3, §4, §5, §6, §7, §8, §9

Humulus scandens [3] = assay: as above; conditions: 150 g a.i./ha, visual inspection 21 days after treatment
Protocol: as §10, §2, §3, §4, §5, §6, §7, §8, §9

Humulus scandens [4] = assay: Herbicidal activity test for indoor post-emergence spraying on stems and leaves; design: key: grade level by weed remaining vs blank control, e.g. 5 = 10.1-15%; conditions: 150 g a.i./ha, visual inspection 21 days after treatment
Protocol: (§11) The post-emergence herbicidal activity test was performed with some of the N-benzylbenzamide-based compounds of general formula I or II with reference to the method of NY/T 1155.4-2006. […] After the sowing, the weed was moved to a greenhouse for regular cultivation. […] Then, the results were investigated by visual inspection 21 days after the treatments. […] Level 5: equivalent to 10.1 to 15% of the weed in the blank control area; Level 6: equivalent to 15.1 to 25% of the weed in the blank control area; Level 7: equivalent to 25.1 to 35% of the weed in the blank control area; Level 8: equivalent to 35.1 to 67.5% of the weed in the blank control area; and […]

Barnyard grass [5] = assay: as above; design: key: grade level by weed remaining vs blank control, e.g. 5 = 10.1-15%; conditions: 150 g a.i./ha, visual inspection 21 days after treatment
Protocol: as §11

Digitaria sanguinalis [6] = assay: as above; design: key: grade level by weed remaining vs blank control, e.g. 5 = 10.1-15%; conditions: 150 g a.i./ha, visual inspection 21 days after treatment
Protocol: as §11

Piemarker [7] = assay: as above; design: key: grade level by weed remaining vs blank control, e.g. 5 = 10.1-15%; conditions: 150 g a.i./ha, visual inspection 21 days after treatment
Protocol: as §11

Amaranthus retroflexus [8] = assay: as above; design: key: grade level by weed remaining vs blank control, e.g. 5 = 10.1-15%; conditions: 150 g a.i./ha, visual inspection 21 days after treatment
Protocol: as §11

green bristlegrass [9] = assay: as above; design: key: grade level by weed remaining vs blank control, e.g. 5 = 10.1-15%; conditions: 150 g a.i./ha, visual inspection 21 days after treatment
Protocol: as §11

Barnyard grass [10] = assay: Herbicidal activity test for indoor pre-emergence soil treatment; design: key: level 1-9; higher = more weed remaining vs blank control; conditions: 150 g a.i./ha, visual inspection 21 days after treatment
Protocol: as §10, §2, §3, §4, §5, §6, §7, §8, §9

Piemarker [11] = assay: as above; design: key: level 1-9; higher = more weed remaining vs blank control; conditions: 150 g a.i./ha, visual inspection 21 days after treatment
Protocol: as §10, §2, §3, §4, §5, §6, §7, §8, §9

green bristlegrass [12] = assay: as above; design: key: level 1-9; higher = more weed remaining vs blank control; conditions: 150 g a.i./ha, visual inspection 21 days after treatment
Protocol: as §10, §2, §3, §4, §5, §6, §7, §8, §9

Solanum nigrum = assay: Field test for weed control in a corn field; conditions: 150 g a.i./ha, 30 days after treatment
Protocol: (§12) The weed control efficacy field test was performed in a corn field with some of the N-benzylbenzamide-based compounds of general formula I or II with reference to the method of GB/T 17980.42-2000. […] Spray treatments were performed in the stage where 2 leaves to 5 leaves were grown for the corns after the sowing. Representative compounds in the examples were used to prepare emulsifiable concentrates (10%), and spray treatments were performed with the concentrates in water at a dosage of 150 g(a.i.)/ha, and repeated 4 times for each treatment, and the area was 20 m^2. Oil dispersion with 25% of mesotrione was used as a control agent and applied at a dosage of 150 g(a.i.)/h. […] The herbicidal activities of the agents were evaluated on a scale of 1-9 levels according to the symptoms and severity of damage to the test weeds.
as §2, §3, §4, §5, §6, §7, §8, §9

nutgrass flatsedge = assay: Field test for weed control in a corn field; conditions: 150 g a.i./ha, after treatment
Protocol: as §12, §2, §3, §4, §5, §6, §7, §8, §9

Chenopodium album = assay: Field test for weed control in a corn field; conditions: 150 g a.i./ha, after treatment
Protocol: as §12, §2, §3, §4, §5, §6, §7, §8, §9

Barnyard grass [13] = assay: Field test for weed control in a corn field; conditions: 150 g a.i./ha, 30 days after treatment
Protocol: as §12, §2, §3, §4, §5, §6, §7, §8, §9

Digitaria sanguinalis [14] = assay: Field test for weed control in a corn field; conditions: 150 g a.i./ha, after treatment
Protocol: as §12, §2, §3, §4, §5, §6, §7, §8, §9

Acalypha australis = assay: Field test for weed control in a corn field; conditions: 150 g a.i./ha, after treatment
Protocol: as §12, §2, §3, §4, §5, §6, §7, §8, §9

goosegrass = assay: Field test for weed control in a corn field; conditions: 150 g a.i./ha, after treatment
Protocol: as §12, §2, §3, §4, §5, §6, §7, §8, §9

Amaranthus retroflexus [15] = assay: Field test for weed control in a corn field; conditions: 150 g a.i./ha, 30 days after treatment
Protocol: as §12, §2, §3, §4, §5, §6, §7, §8, §9

Convolvulus arvensis = assay: Field test for weed control in a corn field; conditions: 150 g a.i./ha, after treatment
Protocol: as §12, §2, §3, §4, §5, §6, §7, §8, §9

Portulaca oleracea = assay: Field test for weed control in a corn field; conditions: 150 g a.i./ha, after treatment
Protocol: as §12, §2, §3, §4, §5, §6, §7, §8, §9

green bristlegrass [16] = assay: Field test for weed control in a corn field; conditions: 150 g a.i./ha, after treatment
Protocol: as §12, §2, §3, §4, §5, §6, §7, §8, §9

SMILES | Herbicidal activity 15 days after treatment Cyperaceae (Cyperaceae) | Herbicidal activity 30 days after treatment Cyperaceae (Cyperaceae) | Herbicidal activity 15 days after treatment Broadleaf weed (Broadleaf weed) | Herbicidal activity 30 days after treatment Broadleaf weed (Broadleaf weed) | Herbicidal activity 15 days after treatment Gramineae (Gramineae) | Herbicidal activity 30 days after treatment Gramineae (Gramineae) | Herbicidal Activity Digitaria sanguinalis (Digitaria sanguinalis [1]) | Herbicidal Activity Amaranthus retroflexus (Amaranthus retroflexus [2]) | Herbicidal Activity Humulus scandens (Humulus scandens [3]) | Herbicidal Activity Humulus scandens (Humulus scandens [4]) | Herbicidal Activity Barnyard grass (Barnyard grass [5]) | Herbicidal Activity Digitaria sanguinalis (Digitaria sanguinalis [6]) | Herbicidal Activity Piemarker (Piemarker [7]) | Herbicidal Activity Amaranthus retroflexus (Amaranthus retroflexus [8]) | Herbicidal Activity Green bristlegrass (green bristlegrass [9]) | Herbicidal Activity Barnyard grass (Barnyard grass [10]) | Herbicidal Activity Piemarker (Piemarker [11]) | Herbicidal Activity Green bristlegrass (green bristlegrass [12]) | Post-emergence weed control effect, Solanum nigrum (Solanum nigrum) | Post-emergence weed control effect, Nutgrass flatsedge (nutgrass flatsedge) | further results
COc1ccccc1C(=O)NCc1cccc(F)c1 [Compound A01, N-(3-fluorobenzylamine)-2-methoxybenzamide] | 1 | 2 (equivalent to 0 to 2.5% of the weed in the blank control area) | 1 | 2 (equivalent to 0 to 2.5% of the weed in the blank control area) | 2 (equivalent to 0 to 2.5% of the weed in the blank control area) | 2 (equivalent to 0 to 2.5% of the weed in the blank control area) | 1 | 3 (equivalent to 2.6 to 5% of the weed in the blank control area) | 4 (equivalent to 5.1 to 10% of the weed in the blank control area) | 1 | 1 | 1 | 1 | 1 | 1 | 1 | 3 (equivalent to 2.6 to 5% of the weed in the blank control area) | 1 | 2 (equivalent to 0 to 2.5% of the weed in the blank control area) | 2 (equivalent to 0 to 2.5% of the weed in the blank control area) | Post-emergence weed control effect, Chenopodium album (Chenopodium album): 1; Post-emergence weed control effect, Barnyard grass (Barnyard grass [13]): 2 (equivalent to 0 to 2.5% of the weed in the blank control area); Post-emergence weed control effect, Digitaria sanguinalis (Digitaria sanguinalis [14]): 2 (equivalent to 0 to 2.5% of the weed in the blank control area); Post-emergence weed control effect, Acalypha australis (Acalypha australis): 2 (equivalent to 0 to 2.5% of the weed in the blank control area); Post-emergence weed control effect, Goose grass (goosegrass): 2 (equivalent to 0 to 2.5% of the weed in the blank control area); Post-emergence weed control effect, Amaranthus retroflexus (Amaranthus retroflexus [15]): 1; Post-emergence weed control effect, Convolvulus arvensis (Convolvulus arvensis): 1; Post-emergence weed control effect, Portulaca oleracea (Portulaca oleracea): 1; Post-emergence weed control effect, Green bristlegrass (green bristlegrass [16]): 1
COc1ccccc1C(=O)NCc1cc(F)cc(Cl)c1 [Compound A07, N-(3-chloro-5-fluorobenzyl)-2-methoxybenzamide] | 1 | 2 (equivalent to 0 to 2.5% of the weed in the blank control area) | 2 (equivalent to 0 to 2.5% of the weed in the blank control area) | 1 | 2 (equivalent to 0 to 2.5% of the weed in the blank control area) | 2 (equivalent to 0 to 2.5% of the weed in the blank control area) | 1 | 1 | 3 (equivalent to 2.6 to 5% of the weed in the blank control area) | 1 | 1 | 1 | 1 | 1 | 2 (equivalent to 0 to 2.5% of the weed in the blank control area) | 1 | 1 | 2 (equivalent to 0 to 2.5% of the weed in the blank control area) | 2 (equivalent to 0 to 2.5% of the weed in the blank control area) | 2 (equivalent to 0 to 2.5% of the weed in the blank control area) | Post-emergence weed control effect, Chenopodium album (Chenopodium album): 1; Post-emergence weed control effect, Barnyard grass (Barnyard grass [13]): 2 (equivalent to 0 to 2.5% of the weed in the blank control area); Post-emergence weed control effect, Digitaria sanguinalis (Digitaria sanguinalis [14]): 2 (equivalent to 0 to 2.5% of the weed in the blank control area); Post-emergence weed control effect, Acalypha australis (Acalypha australis): 2 (equivalent to 0 to 2.5% of the weed in the blank control area); Post-emergence weed control effect, Goose grass (goosegrass): 2 (equivalent to 0 to 2.5% of the weed in the blank control area); Post-emergence weed control effect, Amaranthus retroflexus (Amaranthus retroflexus [15]): 1; Post-emergence weed control effect, Convolvulus arvensis (Convolvulus arvensis): 1; Post-emergence weed control effect, Portulaca oleracea (Portulaca oleracea): 1; Post-emergence weed control effect, Green bristlegrass (green bristlegrass [16]): 2 (equivalent to 0 to 2.5% of the weed in the blank control area)
